Numbered stars: 1 amine (or outer) side, 2 acyl side, 3 side chain; on linkers, the order of the positions; unused ones are H or OH. Square brackets hold non-standard residues; d marks the D form. Peptide text beside a SMILES is read from it. * marks the point of attachment. Fmoc = O=C(OCC1c2ccccc2-c2ccccc21)*; X1 = NCCc1cc(CN[*:1])ccc1C(=O)[*:2]
Assays:
[1] = Determination of half life in PBS (cleavage of biodegradable linkers from model peptides); type: physicochemical; details: linker X on N terminus of model peptide X-[…]; 1 mg/mL in PBS, 37° C.; read-out: t1/2 (h), cleavage of biodegradable linker (converted)
Experimental: Peptides GIVEQAA-NH2 (SEQ ID NO: 3) and […] (SEQ ID NO: 2), two mimics of the N-terminus section of insulin A chain, were used as model peptides to determine the half lives of various biogradable linkers linked to the N-terminus of the peptides through an amide bond. The model peptides were prepared with Fmoc chemistry, cleaved by TFA and purified by preparative RP-HPLC.
A model peptide capped with a biodegradable linker was dissolved at 1 mg/mL concentration in PBS and the solution was incubated at 37° C. in a water bath. Samples were collected for analysis at different time points (e.g., 8 h, 16 h, 24 h, 48 h, 72 h, 96 h, 120 h). […] The cleavage of a biodegradable linker was quenched by lowering pH to 2 by addition of 0.1% TFA solution. RP-HPLC was used to monitor the cleavage reactions and the cleavage rates were quantitatively studied by measuring the peak areas of model peptides when they are capped with biodegradable linkers and when linkers are released. […]
The rate of cleavage was determined for the model peptides capped with respective biodegradable linkers. The concentrations of the model peptides capped with biodegradable linkers and the released model peptides were determined by their respective peak areas. […] The cleavage half life of a peptide capped with a biodegradable linker was calculated by using the equation and the slope derived from this plot. […]

[2] = Determination of half life in serum (cleavage of biodegradable linkers from model peptide); type: in vitro ADME; details: serum (100%); linker X on N terminus of model peptide X-G-dI-dV-dE-dQ-dA-dA; 100% serum, 37° C.; read-out: t1/2 (h), cleavage of biodegradable linker (converted)
Experimental: Model peptides X-G-dI-dV-dE-dQ-dA-dA (SEQ ID NO:4) capped with various biodegradable linkers were used in the assay. D amino acids were used to prevent other enzymatic cleavage of the model peptides. The peptides were dissolved in 100% serum and incubated at 37° C. Samples were collected for analysis at different time points (e.g., 8 h, 16 h, 24 h, 48 h, 72 h, 96 h, and 120 h).
The rate of cleavage was determined for the model peptides capped with respective biodegradable linkers. The concentrations of the model peptides capped with biodegradable linkers and the released model peptides were determined by their respective peak areas. The first order dissociation rate constant of a model peptide capped with a biodegradable linker was determined by plotting the logarithm of [starting model peptide capped with the biodegradable linker]/[remaining model peptide capped with the biodegradable linker] at various time intervals. The cleavage half life of a peptide capped with a biodegradable linker was calculated by using the equation and the slope derived from this plot.

diabetic rats = assay: Blood glucose change in streptozotocin-induced diabetic rats; type: in vivo, Wistar rats; details: 40 nmol/kg daily
Experimental: 9-week-old male Wistar rats, average weight 240±10 g, were housed in polypropylene cages and maintained at constant temperature and humidity on a 12 hour light/dark cycle, and allowed access to food and water ad libitum. When diabetes was induced, rats were fasted for 48 hours and intraperitoneally injected with streptozotocin (60 mg/kg, dissolved in […] sodium citrate buffer, pH 4.5), then food was provided. Blood glucose was checked after three days. Animals with blood glucose above 250 mg/dl was considered diabetic, and the rats with blood glucose higher than 450 mg/dl were used in the experiment. Recombinant insulin (24 nmol/kg) was injected daily to maintain blood glucose no higher than 550 mg/dl.
The insulin hydrogels were prepared according to the methods in Examples 8 and 20, but the hydrogel used in this example was loaded only with insulin. The actual insulin content was calculated with the method in Example 18.
Rats showing hyperglycemia (400-450 mg/dl) were divided into 3 groups, each containing 8 rats. Rats in the first group were intraperitoneally injected saline (100 μL). Rats in the second group were intraperitoneal injected insulin detemir (40 nmol/kg) daily. Rats in the third group were Injected hydrogel (75 nmol/kg, calculated according to the actual amount of human insulin in the hydrogel). […]

CC1NCc2cc(CN)ccc2C1=O (stereo not drawn)
half-life at 1 mg/mL [1]: 264 h

CC[C@@H](C)[C@@H](NC(=O)CNC(=O)c1ccc(CNC(=O)OCC2c3ccccc3-c3ccccc32)cc1CCN)C(=O)N[C@@H](C(=O)N[C@H](CCC(=O)O)C(=O)N[C@H](CCC(N)=O)C(=O)N[C@H](C)C(=O)N[C@H](C)C(=O)O)C(C)C (Fmoc-[X1]G[dI][dV][dE][dQ][dA][dA]-OH)
half-life [2]: 735 h

Insulin detemir
blood glucose lowering (diabetic rats): cannot effectively lower blood glucose

— US11285103B2, “Degradable hydrogel under physiological conditions” (priority 2015, dated 2022)
